Experimental data reported in US9695155B2, “Herbicidal substituted pyrimidinyloxy benzene compounds” (E. I. DU PONT DE NEMOURS AND COMPANY, priority 2013, dated 2017).

What was measured:
[1] = tested on: barnyardgrass; experiment: Test A preemergence; type: in vivo, Echinochloa crus-galli
In short: (§1)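 Greenhouse pot test, loam/sand soil. Formulation: non-phytotoxic solvent mix plus surfactant. Pre: directed spray onto soil after sowing. Post: plants at 1–2 leaf, 2–10 cm. Rated visually vs untreated controls at ~10 d, 0 (no effect) to 100 (complete control).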

[2] = tested on: large (Lg) crabgrass; experiment: Test A preemergence; type: in vivo, Digitaria sanguinalis; details: Digitaria sanguinalis, pre-emergence, 240 h, read-out: Crabgrass, Large plant response rating
In short: as §1

[3] = tested on: wheat; experiment: Test A preemergence; type: in vivo, Triticum aestivum; details: Triticum aestivum, pre-emergence, 240 h, read-out: Wheat plant response rating
In short: as §1

[4] = tested on: giant foxtail; experiment: Test A postemergence; type: in vivo, Setaria faberii
In short: as §1

[5] = tested on: morningglory; experiment: Test A postemergence; type: in vivo, Ipomoea spp.; details: Ipomoea, post-emergence, 240 h
In short: as §1

[6] = tested on: corn; experiment: Test A postemergence; type: in vivo, Zea mays
In short: as §1

[7] = tested on: Heteranthera limosa; experiment: Test B flooded paddy test; type: in vivo; details: Flood, 250 g ai/ha, 0 to 100 scale where 0 is no effect and 100 is complete control
In short: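 2-leaf stage plants; pots flooded to 3 cm, compound added to paddy water, depth maintained. Greenhouse 13–15 d. Visual rating vs untreated controls, 0 (no effect) to 100 (complete control); dash = no result.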

[8] = tested on: corn; experiment: Test C postemergence; type: in vivo, Zea mays
Excerpt: (§2) Seeds of plant species selected from blackgrass (Alopecurus myosuroides), Italian ryegrass (Lolium multiflorum), wheat, winter (winter wheat, Triticum aestivum), galium (catchweed bedstraw, Galium aparine), corn (Zea mays), large (Lg) crabgrass (Digitaria sanguinalis), giant foxtail (Setaria faberii), johnsongrass (Sorghum halepense), lambsquarters (Chenopodium album), morningglory (Ipomoea coccinea), yellow nutsedge (Cyperus esculentus), pigweed (Amaranthus retroflexus), ragweed (common ragweed, Ambrosia elatior), soybean (Glycine max), barnyardgrass (Echinochloa crus-galli), oilseed rape (Brassica napus), waterhemp (common waterhemp, Amaranthus rudis), kochia (Kochia scoparia), wild oat (Avena fatua), surinam grass (Brachiaria decumbens), foxtail, green (green foxtail, Setaria viridis), goosegrass (Eleusine indica), bromegrass, downy (downy bromegrass, Bromus tectorum), nightshade (eastern black nightshade, Solanum ptycanthum), cocklebur (common cocklebur, Xanthium strumarium), cupgrass, woolly (woolly cupgrass, Eriochloa villosa), bermudagrass (Cynodon dactylon), sunflower, (common oilseed sunflower, Helianthus annuus), Russian thistle (Salsola kali), and velvetleaf (Abutilon theophrasti) were planted into a blend of loam soil and sand and treated preemergence with test chemicals formulated in a non-phytotoxic solvent mixture which included a surfactant.
(§3) At the same time, plants selected from these crop and weed species and also barley, winter (winter barley, Hordeum vulgare), windgrass (Apera spica-venti), chickweed (common chickweed, Stellaria media), deadnettle (henbit deadnettle, Lamium amplexicaule), and canarygrass (littleseed canarygrass, Phalaris minor) were planted in pots containing Redi-Earth® planting medium (Scotts Company, 14111 Scottslawn Road, Marysville, Ohio 43041) comprising spaghnum peat moss, vermiculite, wetting agent and starter nutrients and treated with postemergence applications of test chemicals formulated in the same manner. Plants ranged in height from 2 to 18 cm (1- to 4-leaf stage) for postemergence treatments. Treated plants and controls were maintained in a greenhouse for 13 to 15 days, after which time all species were compared to controls and visually evaluated. Plant response ratings, summarized in Table C, are based on a scale of 0 to 100 where 0 is no effect and 100 is complete control. A dash (-) response means no test result.

[9] = tested on: morningglory; experiment: Test C postemergence; type: in vivo, Ipomoea coccinea
In short: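 Visual injury score versus untreated controls, 0 = no effect, 100 = complete control, taken 13 to 15 days after treatment in the greenhouse. Pre-emergence pots held loam/sand; post-emergence plants grew in sphagnum peat/vermiculite mix and were sprayed at the 1- to 4-leaf stage.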

[10] = tested on: pigweed; experiment: Test C postemergence; type: in vivo, Amaranthus retroflexus
Excerpt: as §2, §3

[11] = tested on: kochia; experiment: Test C postemergence; type: in vivo, Kochia scoparia
Excerpt: as §2, §3

[12] = tested on: wild oat; experiment: Test C postemergence; type: in vivo, Avena fatua
Excerpt: as §2, §3

[13] = 125 g ai/ha, 0 to 100 scale where 0 is no effect and 100 is complete control
[14] = 500 g ai/ha, 0 to 100 scale, 0 no effect, 100 complete control, approx. 10 days
[15] = 500 g ai/ha, 0 to 100 scale where 0 is no effect and 100 is complete control
[16] = 125 g ai/ha, 0 to 100 scale, 0 no effect, 100 complete control
[17] = 31 g ai/ha, postemergence, visual rating, scale 0 to 100 (0 no effect, 100 complete control), 13 to 15 days
[18] = 125 g ai/ha, postemergence, visual rating, scale 0 to 100 (0 no effect, 100 complete control)
[19] = Postemergence, 62 g ai/ha, scale 0 to 100 (0 no effect, 100 complete control), 13 to 15 days

Fc1cnc(Oc2ccccc2-n2cc(Br)cn2)nc1 [Compound 10, 2-[2-(4-bromo-1H-pyrazol-1-yl)phenoxy]-5-fluoropyrimidine]
pest or weed control at 125 g/ha ([1]; Echinochloa crus-galli, pre-emergence, 240 h, 125 g ai/ha, 0 to 100 scale where 0 is no effect and 100 is complete control, read-out: Barnyardgrass plant response rating): 60% | pest or weed control at 500 g/ha ([1]; Echinochloa crus-galli, pre-emergence, 240 h, 500 g ai/ha, 0 to 100 scale, 0 no effect, 100 complete control, approx. 10 days, read-out: Barnyardgrass plant response rating): 90% | pest or weed control at 125 g/ha [2, 13]: 100% | pest or weed control at 500 g/ha [2, 14]: 100% | plant injury at 125 g/ha [3, 13]: 0% | plant injury at 500 g/ha [3, 14]: 20% | pest or weed control at 125 g/ha ([4]; Setaria faberi, post-emergence, 240 h, 125 g ai/ha, 0 to 100 scale where 0 is no effect and 100 is complete control, read-out: Plant response rating, Foxtail, Giant): 50% | pest or weed control at 500 g/ha ([4]; Setaria faberi, post-emergence, 240 h, 500 g ai/ha, 0 to 100 scale, 0 no effect, 100 complete control, read-out: Plant response rating Foxtail, Giant): 90% | pest or weed control at 125 g/ha ([5]; 125 g ai/ha, 0 to 100 scale where 0 is no effect and 100 is complete control, read-out: Plant response rating, Morningglory): 90% | pest or weed control at 500 g/ha ([5]; 500 g ai/ha, 0 to 100 scale, 0 no effect, 100 complete control, read-out: Plant response rating Morningglory): 100% | Corn plant response rating (crop injury, 0 = no effect, 100 = complete kill) at 125 g/ha ([6]; Zea mays, post-emergence, 240 h, 125 g ai/ha, 0 to 100 scale where 0 is no effect and 100 is complete control): 20% | plant injury at 500 g/ha ([6]; Zea mays, post-emergence, 240 h, 500 g ai/ha, 0 to 100 scale, 0 no effect, 100 complete control, read-out: Plant response rating Corn): 50% | pest or weed control at 250 g/ha ([7]; Heteranthera limosa, read-out: Plant response rating, Ducksalad): 75% | plant injury at 125 g/ha ([8]; Zea mays, post-emergence, 125 g ai/ha, postemergence, read-out: Plant response rating (0 to 100), Corn): 5% | plant injury at 250 g/ha ([8]; Zea mays, post-emergence, 250 g ai/ha, postemergence, read-out: Plant response rating (0 to 100), Corn): 20% | Corn plant response rating (crop injury, 0 = no effect, 100 = complete kill) at 31 g/ha ([8]; Zea mays, post-emergence, Postemergence, 31 g ai/ha, scale 0 to 100 (0 no effect, 100 complete control), 13 to 15 days): 5% | Corn plant response rating (crop injury, 0 = no effect, 100 = complete kill) at 62 g/ha ([8]; Zea mays, post-emergence, Postemergence, 62 g ai/ha, scale 0 to 100 (0 no effect, 100 complete control)): 5% | pest or weed control at 125 g/ha ([9]; Ipomoea, post-emergence, 125 g ai/ha, postemergence, read-out: Plant response rating (0 to 100), Morningglory): 65% | pest or weed control at 250 g/ha ([9]; Ipomoea, post-emergence, 250 g ai/ha, postemergence, read-out: Plant response rating (0 to 100), Morningglory): 85% | pest or weed control at 31 g/ha ([9]; Ipomoea, post-emergence, Postemergence, 31 g ai/ha, scale 0 to 100 (0 no effect, 100 complete control), 13 to 15 days, read-out: Plant response rating, Morningglory): 40% | pest or weed control at 62 g/ha ([9]; Ipomoea, post-emergence, Postemergence, 62 g ai/ha, scale 0 to 100 (0 no effect, 100 complete control), read-out: Plant response rating, Morningglory): 65% | pest or weed control at 125 g/ha ([10]; Amaranthus retroflexus, post-emergence, 125 g ai/ha, postemergence, read-out: Plant response rating (0 to 100), Pigweed): 100% | pest or weed control at 250 g/ha ([10]; Amaranthus retroflexus, post-emergence, 250 g ai/ha, postemergence, read-out: Plant response rating (0 to 100), Pigweed): 100% | pest or weed control at 31 g/ha ([10]; Amaranthus retroflexus, post-emergence, Postemergence, 31 g ai/ha, scale 0 to 100 (0 no effect, 100 complete control), 13 to 15 days, read-out: Plant response rating, Pigweed): 75% | pest or weed control at 62 g/ha ([10]; Amaranthus retroflexus, post-emergence, Postemergence, 62 g ai/ha, scale 0 to 100 (0 no effect, 100 complete control), read-out: Plant response rating, Pigweed): 98% | pest or weed control at 125 g/ha ([11]; Bassia scoparia, post-emergence, 125 g ai/ha, postemergence, read-out: Plant response rating (0 to 100), Kochia): 95% | pest or weed control at 250 g/ha ([11]; Bassia scoparia, post-emergence, 250 g ai/ha, postemergence, read-out: Plant response rating (0 to 100), Kochia): 98% | pest or weed control at 31 g/ha ([11]; Bassia scoparia, post-emergence, Postemergence, 31 g ai/ha, scale 0 to 100 (0 no effect, 100 complete control), 13 to 15 days, read-out: Plant response rating, Kochia): 20% | pest or weed control at 62 g/ha ([11]; Bassia scoparia, post-emergence, Postemergence, 62 g ai/ha, scale 0 to 100 (0 no effect, 100 complete control), read-out: Plant response rating, Kochia): 40% | pest or weed control at 125 g/ha ([12]; Avena fatua, post-emergence, 125 g ai/ha, postemergence, read-out: Plant response rating (0 to 100), Oat, Wild): 5% | pest or weed control at 250 g/ha ([12]; Avena fatua, post-emergence, 250 g ai/ha, postemergence, read-out: Plant response rating (0 to 100), Oat, Wild): 30% | pest or weed control at 31 g/ha ([12]; Avena fatua, post-emergence, Postemergence, 31 g ai/ha, scale 0 to 100 (0 no effect, 100 complete control), 13 to 15 days, read-out: Plant response rating, Oat, Wild): 0% | pest or weed control at 62 g/ha ([12]; Avena fatua, post-emergence, Postemergence, 62 g ai/ha, scale 0 to 100 (0 no effect, 100 complete control), read-out: Plant response rating, Oat, Wild): 0%

N#Cc1cccc(Oc2ncc(Cl)cn2)c1-n1cc(-n2ccc(C(F)(F)F)n2)cn1 [Compound 284]
Barnyardgrass plant response rating (0 to 100 scale, 0 is no effect, 100 is complete control) ([1]; 125 g ai/ha): 60 | Barnyardgrass plant response rating [1, 15]: 90 | Plant response rating, Foxtail, Giant [4, 16]: 90 | Plant response rating, Foxtail, Giant [4, 15]: 90 | Plant response rating, Corn [6, 16]: 20 | Plant response rating, Corn [6, 15]: 40 | Plant response rating, Ducksalad [7]: 80 | Corn plant response rating [8, 17]: 5 | Plant response rating, Corn [8, 18]: 20 | Plant response rating (0 to 100), Corn ([8]; 250 g ai/ha, postemergence): 20 | Plant response rating, Corn [8, 19]: 10 | Morningglory plant response rating [9, 17]: 70 | Plant response rating, Morningglory [9, 18]: 85 | Plant response rating (0 to 100), Morningglory ([9]; 250 g ai/ha, postemergence): 100 | Plant response rating, Morningglory [9, 19]: 100 | Pigweed plant response rating [10, 17]: 98 | Plant response rating, Pigweed [10, 18]: 100 | Plant response rating (0 to 100), Pigweed ([10]; 250 g ai/ha, postemergence): 100 | Plant response rating, Pigweed [10, 19]: 98 | Kochia plant response rating [11, 17]: 100 | Plant response rating, Kochia [11, 18]: 100 | Plant response rating (0 to 100), Kochia ([11]; 250 g ai/ha, postemergence): 100 | Plant response rating, Kochia [11, 19]: 100 | Oat, Wild plant response rating [12, 17]: 5 | Plant response rating, Oat, Wild [12, 18]: 5 | Plant response rating (0 to 100), Oat, Wild ([12]; 250 g ai/ha, postemergence): 5 | Plant response rating, Oat, Wild [12, 19]: 5
